Experimental data as given in patent publication US9029364B2, “2,5-disubstituted thiomorpholine orexin receptor antagonists” (Merck Sharp & Dohme Corp., priority 2011, dated 2015).

Target: human orexin-2 receptor (Homo sapiens (Human), UniProt O43614)
Assay: radioligand binding assay, orexin-2 receptor (hOX2 Bind hKi)
Conditions: membranes from CHO cells expressing OX2 receptor
Experimental: In a typical experiment the OX1 and OX2 receptor antagonistic activity of the compounds of the present invention was determined in accordance with the following experimental method. For intracellular calcium measurements, Chinese hamster ovary (CHO) cells expressing the rat orexin-1 receptor or the human orexin-2 receptor, are grown in Iscove's modified DMEM containing 2 mM L-glutamine, […], 1% hypoxanthine-thymidine supplement, 100 U/ml penicillin, 100 μg/ml streptomycin and 10% heat-inactivated fetal calf serum (FCS). The cells are seeded at 20,000 cells/well into Becton-Dickinson black 384-well clear bottom sterile plates coated with poly-D-lysine. All reagents were from GIBCO-Invitrogen Corp. The seeded plates are incubated overnight at 37° C. and 5% CO2. Ala-6,12 human orexin-A as the agonist is prepared as a 1 mM stock solution in 1% bovine serum albumin (BSA) and diluted in assay buffer (HBSS containing 20 mM HEPES, 0.1% BSA and 2.5 mM probenecid, pH7.4) for use in the assay at a final concentration of 70 pM. Test compounds are prepared as 10 mM stock solution in DMSO, then diluted in 384-well plates, first in DMSO, then assay buffer. On the day of the assay, cells are washed 3 times with 100 μl assay buffer and then incubated for 60 min (37° C., 5% CO2) in 60 μl assay buffer containing 1 μM Fluo-4AM ester, 0.02% pluronic acid, and 1% BSA. The dye loading solution is then aspirated and cells are washed 3 times with 100 μl assay buffer. 30 μl of that same buffer is left in each well. Within the Fluorescent Imaging Plate Reader (FLIPR, Molecular Devices), test compounds are added to the plate in a volume of 25 μl, incubated for 5 min and finally 25 μl of agonist is added. Fluorescence is measured for each well at 1 second intervals for 5 minutes and the height of each fluorescence peak is compared to the height of the fluorescence peak induced by 70 pM Ala-6,12 orexin-A with buffer in place of antagonist. For each antagonist, IC50 value (the concentration of compound needed to inhibit 50% of the agonist response) is determined. Alternatively, compound potency can be assessed by a radioligand binding assay (described in Bergman et. al. Bioorg. Med. Chem. Lett. 2008, 18, 1425-1430) in which the inhibition constant (Ki) is determined in membranes prepared from CHO cells expressing either the OX1 or OX2 receptor. The intrinsic orexin receptor antagonist activity of a compound which may be used in the present invention may be determined by these assays.
The following tables show representative data for the compounds of the Examples as orexin receptor antagonists as determined by the foregoing assays wherein the hOX2 Ki is a measure of the ability of the test compound to inhibit the action of the human orexin-2 receptor and the hOX1R is a measure of the ability of the test compound to inhibit the action of the rat orexin-1 receptor.

Chain of human orexin-2 receptor (O43614 whole entry): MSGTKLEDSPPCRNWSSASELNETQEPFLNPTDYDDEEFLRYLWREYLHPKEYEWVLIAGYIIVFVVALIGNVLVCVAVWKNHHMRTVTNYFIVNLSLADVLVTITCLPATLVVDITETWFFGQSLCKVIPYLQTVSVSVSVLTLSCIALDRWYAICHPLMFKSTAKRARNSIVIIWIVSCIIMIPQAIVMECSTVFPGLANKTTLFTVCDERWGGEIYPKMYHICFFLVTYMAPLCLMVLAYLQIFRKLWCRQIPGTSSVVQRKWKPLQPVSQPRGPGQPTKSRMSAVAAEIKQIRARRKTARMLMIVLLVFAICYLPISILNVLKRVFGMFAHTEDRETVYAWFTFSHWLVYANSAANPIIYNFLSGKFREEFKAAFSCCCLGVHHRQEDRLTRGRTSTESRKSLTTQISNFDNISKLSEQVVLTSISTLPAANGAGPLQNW

Compound	Ki [nM]
Cc1ccc(-n2nccn2)c(C(=O)N2C[C@H](COc3ccc(F)cn3)SC[C@H]2C)c1 [Example 1, [(2R,5R)-2-{[(5-Fluoropyridin-2-yl)oxy]methyl}-5-methylthiomorpholin-4-yl][5-methyl-2-(2H-1,2,3-triazol-2-yl)phenyl]methanone]	0.38
C[C@@H]1CS[C@@H](COc2ccccn2)CN1C(=O)c1ccccc1-n1nccn1 [Example 2, (2R,5R)-5-methyl-2-[(pyridin-2-yloxy)methy1]-4-{[2-(2H-1,2,3-triazol-2-yl)phenyl]carbonyl} thiomorpholine]	15.3
C[C@@H]1CS[C@@H](COc2ccc(F)cn2)CN1C(=O)c1ccccc1-n1nccn1 [Example 3, (2R,5R)-2-{[(5-fluoropyridin-2-yl)oxy]methyl}-5-methy1-4-{[2-(2H-1,2,3-triazol-2-yl)phenyl]carbonyl} thiomorpholine]	0.9
Cc1ccc(OC[C@H]2CN(C(=O)c3ccccc3-n3nccn3)[C@H](C)CS2)nc1 [Example 4, (2R,5R)-5-methyl-2-{[(5-methylpyridin-2-yl)oxy]methyl}-4-{[2-(2H-1,2,3-triazol-2-yl)phenyl]carbonyl} thiomorpholine]	9.7
C[C@@H]1CS[C@@H](COc2ccc(Cl)cn2)CN1C(=O)c1ccccc1-n1nccn1 [Example 5, (2R,5R)-2-{[(5-chloropyridin-2-yl)oxy]methyl}-5-methyl-4-{[2-(2H-1,2,3-triazol-2-yl)phenyl]carbonyl} thiomorpholine]	1.7
C[C@@H]1CS[C@@H](COc2ccc(C#N)cn2)CN1C(=O)c1ccccc1-n1nccn1 [Example 6, 6-{[(2R,5R)-5-methy1-4-{[2-(2H-1,2,3-triazol-2-yl)phenyl]carbonyl}thiomorpholin-2-yl]methoxy}pyridine-3-carbonitrile]	47
C[C@@H]1CS[C@@H](COc2ccc(C(F)(F)F)cn2)CN1C(=O)c1ccccc1-n1nccn1 [Example 7, (2R,5R)-5-methyl-4-{[2-(2H-1,2,3-triazol-2-yl)phenyl]carbonyl}-2-({[5-(trifluoromethyl)pyridin-2-yl]oxy}methyl)thiomorpholine]	66
C[C@@H]1CS[C@@H](COc2ncccc2Cl)CN1C(=O)c1ccccc1-n1nccn1 [Example 8, (2R,5R)-2-{[(3-chloropyridin-2-yl)oxy]methyl}-5-methyl-4-{[2-(2H-1,2,3-triazol-2-yl)phenyl]carbonyl} thiomorpholine]	2.5
C[C@@H]1CS[C@@H](COc2ncccc2C#N)CN1C(=O)c1ccccc1-n1nccn1 [Example 9, 2-{[(2R,5R)-5-methy1-4-{[2-(2H-1,2,3-triazol-2-yl)phenyl]carbonyl}thiomorpholin-2-yl]methoxy}pyridine-3-carbonitrile]	150
Cc1ccnc(OC[C@H]2CN(C(=O)c3ccccc3-n3nccn3)[C@H](C)CS2)c1 [Example 10, (2R,5R)-5-methyl-2-{[(4-methylpyridin-2-yl)oxy]methyl}-4-{[2-(2H-1,2,3-triazol-2-yl)phenyl]carbonyl} thiomorpholine]	192
C[C@@H]1CS[C@@H](COc2ncccn2)CN1C(=O)c1ccccc1-n1nccn1 [Example 11, (2R,5R)-5-methyl-2-[(pyrimidin-2-yloxy)methy1]-4-{[2-(2H-1,2,3-triazol-2-yl)phenyl]carbonyl} thiomorpholine]	> 4650
Cc1nc(OC[C@H]2CN(C(=O)c3ccccc3-n3nccn3)[C@H](C)CS2)ncc1Cl [Example 12, (2R,5R)-2-{[(5-chloro-4-methylpyrimidin-2-yl)oxy]methyl}-5-methyl-4-{[2-(2H-1,2,3-triazol-2-yl)phenyl]carbonyl} thiomorpholine]	32
Cc1cnc(OC[C@H]2CN(C(=O)c3ccccc3-n3nccn3)[C@H](C)CS2)nc1Cl [Example 13, (2R,5R)-2-{[(4-chloro-5-methylpyrimidin-2-yl)oxy]methyl}-5-methyl-4-{[2-(2H-1,2,3-triazol-2-yl)phenyl]carbonyl} thiomorpholine]	7.4
COc1cnc(OC[C@H]2CN(C(=O)c3ccccc3-n3nccn3)[C@H](C)CS2)nc1Cl [Example 14, (2R,5R)-2-{[(4-chloro-5-methoxypyrimidin-2-yl)oxy]methyl}-5-methyl-4-{[2-(2H-1,2,3-triazol-2-yl)phenyl]carbonyl} thiomorpholine]	155
C[C@@H]1C[S+]([O-])[C@@H](COc2ccc(F)cn2)CN1C(=O)c1ccccc1-n1nccn1 (stereo partly drawn) [Example 15, [(2R,5R)-2-{[(5-Fluoropyridin-2-yl)oxy]methyl}-5-methyl-1-oxidothiomorpholin-4-yl][2-(2H-1,2,3-triazol-2-yl)phenyl]methanone]	170
C[C@@H]1CS[C@@H](CSc2ccccn2)CN1C(=O)c1ccccc1-n1nccn1 [Example 17, {(2R,5R)-5-Methyl-2-[(pyridine-2-ylsulfanyl)methyl]thiomorpholin-4-yl}[2-(2H-1,2,3-triazol-2-yl)phenyl]methanone]	98
